From patent publication US20260219194A1, “BIOSENSOR FOR WATER ANALYSIS” (BIOCELL ANALYTICA UPPSALA AB, priority 2023, published 2026) come the findings set out here.

The structures appear in SMILES notation.

In the assay the test system is estrogen responsive promoter (four repeats of estrogen response element, ERE) in MCF-7/S0.5 reporter cells. Description: Estrogen-responsive NanoLuc luciferase reporter assay in transfected MCF-7/S0.5 cells, luminescence in culture medium without cell lysis. The format is cell-based, human. The note with it: MCF-7/S0.5 reporter cells exposed for 24 h to 0.03 to 109 ng/L. The method, then: MCF-7/S0.5 human breast cancer cells (Sigma-Aldrich, catalogue no. SCC100) were cultured in medium supplemented with 1% charcoal-stripped fetal bovine serum (FBS) for 48 hours prior to seeding. The cells were then seeded in medium supplemented with 1% FBS and incubated for 48 hours. […]
The luminescence was measured in the cell culture medium by a Spark® Multimode Microplate Reader (Tecan) from three experimental groups: a) negative control with only cell culture medium but no cells, b) cell culture medium and non-transfected cells, and c) cell cultured medium and cells transfected with the reporter plasmid mentioned above (“reporter cells”).
The MCF-7/S0.5 cells transfected with the reporter plasmid where the expression of NanoLuc® luciferase with an N-terminal secretion signal was under the regulation of an estrogen responsive promoter produced in Example 1 were exposed for 24 h to increasing concentrations of 17β-estradiol, ranging from 0.03 to 109 ng/L. The luminescence was then analyzed in the cell culture medium, without cell lysis.

For `C[C@]12CC[C@@H]3c4ccc(O)cc4CC[C@H]3[C@@H]1CC[C@@H]2O` [E2, 17β-estradiol], the “amount of NanoLuc luciferase secreted into the cell culture medium” value (FIG. 6) is listed as “increasing with increasing concentration of E2”. Further, the “effect concentration 20% (EC20)” value (luminescence of secreted NanoLuc luciferase in cell culture medium) worked out at 0.00019 ng/mL.
